Measured values published in the kinase profiling compilation of Christmann-Franck et al. (2016).

How the values were obtained:
Experiment in all cases: KINOMEscan competition binding
Conditions in all cases: compound 10.0 µM
MAP3K13 (human) = MAP3K13 (human) (UniProt O43283)
MKNK2 (human) = MKNK2 (human) (UniProt Q9HBH9)
[1] = tested on: RET (human), P07949 [V804L]
LTK (human) = LTK (human) (UniProt P29376)
PHKG1 (human) = PHKG1 (human) (UniProt Q16816)
CDC42BPG (human) = CDC42BPG (human) (UniProt Q6DT37)
RPS6KA2 KD2 (human) = RPS6KA2 KD2 (human) (UniProt Q15349)
DYRK1B (human) = DYRK1B (human) (UniProt Q9Y463)
MKNK1 (human) = MKNK1 (human) (UniProt Q9BUB5)
PLK2 (human) = PLK2 (human) (UniProt Q9NYY3)
YSK4 (human) = YSK4 (human) (UniProt Q56UN5)
ANKK1 (human) = ANKK1 (human) (UniProt Q8NFD2)
MUSK (human) = MUSK (human) (UniProt O15146)
MAPK15 (human) = MAPK15 (human) (UniProt Q8TD08)
EPHA2 (human) = EPHA2 (human) (UniProt P29317)
PLK1 (human) = PLK1 (human) (UniProt P53350)
ALK (human) = ALK (human) (UniProt Q9UM73)
FER (human) = FER (human) (UniProt P16591)
INSRR (human) = INSRR (human) (UniProt P14616)
PAK2 (human) = PAK2 (human) (UniProt Q13177)
MELK (human) = MELK (human) (UniProt Q14680)
MAP2K4 (human) = MAP2K4 (human) (UniProt P45985)
CDK8 (human) = CDK8 (human) (UniProt P49336)
EPHA1 (human) = EPHA1 (human) (UniProt P21709)
PTK2B (human) = PTK2B (human) (UniProt Q14289)
PAK1 (human) = PAK1 (human) (UniProt Q13153)
RIOK1 (human) = RIOK1 (human) (UniProt Q9BRS2)
SRPK2 (human) = SRPK2 (human) (UniProt P78362)
CSNK1G1 (human) = CSNK1G1 (human) (UniProt Q9HCP0)
CAMK2D (human) = CAMK2D (human) (UniProt Q13557)
GSK3B (human) = GSK3B (human) (UniProt P49841)
HCK (human) = HCK (human) (UniProt P08631)
ADCK4 (human) = ADCK4 (human) (UniProt Q96D53)
DCLK2 (human) = DCLK2 (human) (UniProt Q8N568)
CDK7 (human) = CDK7 (human) (UniProt P50613)
MAP4K3 (human) = MAP4K3 (human) (UniProt Q8IVH8)
SGK110 (human) = SGK110 (human) (UniProt P0C264)
ZAP70 (human) = ZAP70 (human) (UniProt P43403)

Sequence of RPS6KA2 KD2 (human) (Q15349 whole entry, looked up): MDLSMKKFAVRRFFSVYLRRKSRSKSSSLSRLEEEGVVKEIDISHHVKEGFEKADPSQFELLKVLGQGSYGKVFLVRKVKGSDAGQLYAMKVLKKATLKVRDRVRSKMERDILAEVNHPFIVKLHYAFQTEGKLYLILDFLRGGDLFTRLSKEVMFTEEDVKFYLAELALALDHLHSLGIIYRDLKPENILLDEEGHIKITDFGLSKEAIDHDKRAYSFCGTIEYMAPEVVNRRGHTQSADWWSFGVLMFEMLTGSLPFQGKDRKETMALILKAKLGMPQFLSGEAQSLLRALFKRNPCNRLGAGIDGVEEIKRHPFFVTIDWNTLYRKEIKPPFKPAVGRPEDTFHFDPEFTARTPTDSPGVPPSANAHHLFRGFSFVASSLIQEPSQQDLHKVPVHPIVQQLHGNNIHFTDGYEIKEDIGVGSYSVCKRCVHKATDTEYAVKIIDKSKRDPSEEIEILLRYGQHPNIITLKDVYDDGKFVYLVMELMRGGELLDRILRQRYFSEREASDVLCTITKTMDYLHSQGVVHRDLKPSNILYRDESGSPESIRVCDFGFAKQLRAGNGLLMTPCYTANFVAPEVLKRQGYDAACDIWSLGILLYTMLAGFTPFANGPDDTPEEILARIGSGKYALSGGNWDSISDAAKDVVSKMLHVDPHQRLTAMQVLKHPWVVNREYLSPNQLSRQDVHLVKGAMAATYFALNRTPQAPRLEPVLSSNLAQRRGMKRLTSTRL
Sequence of RET (human), P07949 [V804L] (P07949 whole entry V804L, looked up): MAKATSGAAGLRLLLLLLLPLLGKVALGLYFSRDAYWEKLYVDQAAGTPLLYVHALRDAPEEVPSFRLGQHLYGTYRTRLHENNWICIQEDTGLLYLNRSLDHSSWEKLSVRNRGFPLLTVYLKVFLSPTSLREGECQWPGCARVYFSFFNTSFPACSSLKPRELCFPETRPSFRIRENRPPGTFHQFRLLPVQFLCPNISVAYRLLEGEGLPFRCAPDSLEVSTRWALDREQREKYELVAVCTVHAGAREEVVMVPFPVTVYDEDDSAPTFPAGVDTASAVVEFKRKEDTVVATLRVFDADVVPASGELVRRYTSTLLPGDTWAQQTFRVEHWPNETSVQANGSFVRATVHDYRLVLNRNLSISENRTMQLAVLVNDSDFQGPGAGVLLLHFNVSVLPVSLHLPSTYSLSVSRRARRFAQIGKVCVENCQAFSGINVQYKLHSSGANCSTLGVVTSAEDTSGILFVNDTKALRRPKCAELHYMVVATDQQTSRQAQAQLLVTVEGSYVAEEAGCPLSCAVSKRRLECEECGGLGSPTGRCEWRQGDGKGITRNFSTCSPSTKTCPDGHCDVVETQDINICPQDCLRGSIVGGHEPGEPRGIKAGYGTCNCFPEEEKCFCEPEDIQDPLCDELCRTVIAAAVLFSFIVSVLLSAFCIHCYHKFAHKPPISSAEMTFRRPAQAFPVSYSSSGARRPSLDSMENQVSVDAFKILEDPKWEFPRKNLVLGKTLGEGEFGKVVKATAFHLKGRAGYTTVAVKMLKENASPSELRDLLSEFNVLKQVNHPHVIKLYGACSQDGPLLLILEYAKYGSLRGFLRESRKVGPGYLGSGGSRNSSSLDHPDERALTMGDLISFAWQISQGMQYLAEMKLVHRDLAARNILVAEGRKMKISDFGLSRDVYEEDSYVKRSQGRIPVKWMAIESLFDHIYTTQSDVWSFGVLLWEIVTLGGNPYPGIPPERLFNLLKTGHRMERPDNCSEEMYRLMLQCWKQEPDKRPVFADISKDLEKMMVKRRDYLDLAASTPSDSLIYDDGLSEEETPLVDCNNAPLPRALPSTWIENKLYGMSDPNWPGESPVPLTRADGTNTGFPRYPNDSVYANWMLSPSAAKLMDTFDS
Sequence of PAK2 (human) (Q13177 whole entry, looked up): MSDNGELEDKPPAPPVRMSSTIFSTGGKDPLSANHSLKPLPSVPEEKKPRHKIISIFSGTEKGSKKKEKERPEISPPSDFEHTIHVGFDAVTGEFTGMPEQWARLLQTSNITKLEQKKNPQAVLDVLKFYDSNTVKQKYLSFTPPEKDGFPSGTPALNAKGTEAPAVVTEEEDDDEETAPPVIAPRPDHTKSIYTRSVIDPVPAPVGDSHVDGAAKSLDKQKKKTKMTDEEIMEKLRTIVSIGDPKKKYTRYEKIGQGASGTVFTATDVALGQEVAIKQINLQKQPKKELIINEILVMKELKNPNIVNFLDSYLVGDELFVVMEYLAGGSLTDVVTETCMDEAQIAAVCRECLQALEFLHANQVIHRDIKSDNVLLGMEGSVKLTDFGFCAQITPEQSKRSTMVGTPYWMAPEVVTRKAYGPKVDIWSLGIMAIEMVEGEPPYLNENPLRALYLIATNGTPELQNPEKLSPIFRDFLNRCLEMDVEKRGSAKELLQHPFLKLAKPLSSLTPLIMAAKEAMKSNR
Sequence of MELK (human) (Q14680 whole entry, looked up): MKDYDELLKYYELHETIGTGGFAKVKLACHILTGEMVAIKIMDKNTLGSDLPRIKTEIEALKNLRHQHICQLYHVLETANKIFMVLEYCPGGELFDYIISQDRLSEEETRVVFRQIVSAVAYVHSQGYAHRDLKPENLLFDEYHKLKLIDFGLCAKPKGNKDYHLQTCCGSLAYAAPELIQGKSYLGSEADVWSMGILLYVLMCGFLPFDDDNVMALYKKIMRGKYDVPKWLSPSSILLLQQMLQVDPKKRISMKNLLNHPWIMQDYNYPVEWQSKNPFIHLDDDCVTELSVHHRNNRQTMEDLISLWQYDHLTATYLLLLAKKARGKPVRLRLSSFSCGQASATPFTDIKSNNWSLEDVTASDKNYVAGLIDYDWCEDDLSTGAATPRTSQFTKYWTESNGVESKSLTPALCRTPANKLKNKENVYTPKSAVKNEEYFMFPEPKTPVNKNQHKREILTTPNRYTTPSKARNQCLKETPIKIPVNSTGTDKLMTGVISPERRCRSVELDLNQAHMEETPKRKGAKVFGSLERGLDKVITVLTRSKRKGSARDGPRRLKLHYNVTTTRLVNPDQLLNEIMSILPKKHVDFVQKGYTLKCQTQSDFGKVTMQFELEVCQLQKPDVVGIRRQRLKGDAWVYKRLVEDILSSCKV
Sequence of GSK3B (human) (P49841 whole entry, looked up): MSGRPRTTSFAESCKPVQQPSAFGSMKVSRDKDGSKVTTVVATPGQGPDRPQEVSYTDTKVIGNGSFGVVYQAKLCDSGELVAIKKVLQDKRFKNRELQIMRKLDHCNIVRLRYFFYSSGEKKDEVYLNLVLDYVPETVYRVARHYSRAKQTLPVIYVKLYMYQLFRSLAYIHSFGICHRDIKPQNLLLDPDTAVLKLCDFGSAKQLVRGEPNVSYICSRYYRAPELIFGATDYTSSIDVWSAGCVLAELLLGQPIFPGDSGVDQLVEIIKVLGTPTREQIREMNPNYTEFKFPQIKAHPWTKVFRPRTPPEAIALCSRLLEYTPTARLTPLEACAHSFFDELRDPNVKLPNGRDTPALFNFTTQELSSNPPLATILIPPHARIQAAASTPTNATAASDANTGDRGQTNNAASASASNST
Sequence of LTK (human) (P29376 whole entry, looked up): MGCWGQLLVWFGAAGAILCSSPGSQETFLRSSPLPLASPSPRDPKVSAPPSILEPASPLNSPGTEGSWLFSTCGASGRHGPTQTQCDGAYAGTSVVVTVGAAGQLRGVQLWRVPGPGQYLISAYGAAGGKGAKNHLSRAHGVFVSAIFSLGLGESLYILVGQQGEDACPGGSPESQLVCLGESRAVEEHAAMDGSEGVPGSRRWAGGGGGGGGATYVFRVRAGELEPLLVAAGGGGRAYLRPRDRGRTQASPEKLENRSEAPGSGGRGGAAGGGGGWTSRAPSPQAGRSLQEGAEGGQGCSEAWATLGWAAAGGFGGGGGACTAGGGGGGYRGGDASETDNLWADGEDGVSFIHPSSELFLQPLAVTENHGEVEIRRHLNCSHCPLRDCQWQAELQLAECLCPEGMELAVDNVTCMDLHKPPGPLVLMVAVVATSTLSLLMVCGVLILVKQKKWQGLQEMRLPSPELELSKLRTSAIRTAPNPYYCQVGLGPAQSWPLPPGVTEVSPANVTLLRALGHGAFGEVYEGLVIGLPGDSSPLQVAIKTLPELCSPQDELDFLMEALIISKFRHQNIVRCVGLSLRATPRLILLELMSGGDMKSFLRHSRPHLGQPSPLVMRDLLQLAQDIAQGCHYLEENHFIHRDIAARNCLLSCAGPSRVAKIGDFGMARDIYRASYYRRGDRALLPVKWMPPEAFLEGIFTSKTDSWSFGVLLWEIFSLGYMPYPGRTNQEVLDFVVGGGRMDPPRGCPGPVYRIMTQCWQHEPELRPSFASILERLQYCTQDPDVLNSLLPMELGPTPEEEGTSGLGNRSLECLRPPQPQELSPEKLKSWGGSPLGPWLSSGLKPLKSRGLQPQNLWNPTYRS
Sequence of MKNK2 (human) (Q9HBH9 whole entry, looked up): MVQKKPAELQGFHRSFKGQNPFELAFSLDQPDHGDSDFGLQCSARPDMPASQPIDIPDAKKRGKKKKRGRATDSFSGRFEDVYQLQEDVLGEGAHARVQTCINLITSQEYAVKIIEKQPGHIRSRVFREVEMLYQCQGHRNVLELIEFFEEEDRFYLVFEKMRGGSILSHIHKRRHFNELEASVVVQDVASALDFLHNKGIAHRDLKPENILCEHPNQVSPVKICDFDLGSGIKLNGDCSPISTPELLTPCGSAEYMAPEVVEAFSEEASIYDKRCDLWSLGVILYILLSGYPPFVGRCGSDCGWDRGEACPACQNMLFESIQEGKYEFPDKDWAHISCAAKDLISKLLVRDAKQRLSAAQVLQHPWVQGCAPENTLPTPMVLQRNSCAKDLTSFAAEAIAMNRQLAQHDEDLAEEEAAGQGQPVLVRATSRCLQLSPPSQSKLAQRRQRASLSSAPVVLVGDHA

| Structure (SMILES) | kinase still bound, per cent of control (MKNK2 (human)) [%] | kinase still bound, per cent of control (LTK (human)) [%] | kinase still bound, per cent of control (PHKG1 (human)) [%] | kinase still bound, per cent of control (CDC42BPG (human)) [%] | kinase still bound, per cent of control (RPS6KA2 KD2 (human)) [%] | kinase still bound, per cent of control (DYRK1B (human)) [%] | kinase still bound, per cent of control (MKNK1 (human)) [%] | kinase still bound, per cent of control (ANKK1 (human)) [%] | kinase still bound, per cent of control (MUSK (human)) [%] | kinase still bound, per cent of control (MAPK15 (human)) [%] | kinase still bound, per cent of control (EPHA2 (human)) [%] | kinase still bound, per cent of control (PLK1 (human)) [%] | kinase still bound, per cent of control (ALK (human)) [%] | kinase still bound, per cent of control (FER (human)) [%] | kinase still bound, per cent of control (INSRR (human)) [%] | kinase still bound, per cent of control (PAK2 (human)) [%] | kinase still bound, per cent of control (MELK (human)) [%] | kinase still bound, per cent of control (MAP2K4 (human)) [%] | kinase still bound, per cent of control (CDK8 (human)) [%] | kinase still bound, per cent of control (EPHA1 (human)) [%] | other results |
| --- | --- | --- | --- | --- | --- | --- | --- | --- | --- | --- | --- | --- | --- | --- | --- | --- | --- | --- | --- | --- | --- |
| Cc1cn(-c2cc(C(=O)Nc3ccc(C)c(NC(=O)c4ccno4)c3)cc(C(F)(F)F)c2)cn1 | 100 | 100 | 100 | 100 | 100 | 100 | 100 | 100 | 100 | 100 | 1.6 | 100 | 100 | 100 | 100 | 100 | 100 | 100 | 100 | 100 | kinase still bound, per cent of control (MAP3K13 (human)): 100%; kinase still bound, per cent of control [1]: 100%; kinase still bound, per cent of control (PLK2 (human)): 100%; kinase still bound, per cent of control (YSK4 (human)): 100%; kinase still bound, per cent of control (PTK2B (human)): 100%; kinase still bound, per cent of control (PAK1 (human)): 100%; kinase still bound, per cent of control (RIOK1 (human)): 100%; kinase still bound, per cent of control (SRPK2 (human)): 100%; kinase still bound, per cent of control (CSNK1G1 (human)): 100%; kinase still bound, per cent of control (CAMK2D (human)): 100%; kinase still bound, per cent of control (GSK3B (human)): 100%; kinase still bound, per cent of control (HCK (human)): 1.4%; kinase still bound, per cent of control (ADCK4 (human)): 100%; kinase still bound, per cent of control (DCLK2 (human)): 100%; kinase still bound, per cent of control (CDK7 (human)): 100%; kinase still bound, per cent of control (MAP4K3 (human)): 100%; kinase still bound, per cent of control (SGK110 (human)): 100%; kinase still bound, per cent of control (ZAP70 (human)): 100% |
| COc1cc(C)c(Sc2cnc(NC(=O)c3ccc(CNC(C)C(C)C)cc3)s2)cc1C(=O)N1CCN(C(C)=O)CC1 (stereo unspecified) | 100 | 34 | 100 | 100 | 100 | 100 | 100 | 100 | 0.2 | 100 | 25 | 100 | 4.6 | 15 | 0.35 | 100 | 100 | 100 | 100 | 100 | kinase still bound, per cent of control [1]: 100%; kinase still bound, per cent of control (PTK2B (human)): 100%; kinase still bound, per cent of control (PAK1 (human)): 100%; kinase still bound, per cent of control (RIOK1 (human)): 100%; kinase still bound, per cent of control (SRPK2 (human)): 100%; kinase still bound, per cent of control (CSNK1G1 (human)): 100%; kinase still bound, per cent of control (CAMK2D (human)): 100%; kinase still bound, per cent of control (GSK3B (human)): 100%; kinase still bound, per cent of control (HCK (human)): 100%; kinase still bound, per cent of control (ADCK4 (human)): 100%; kinase still bound, per cent of control (DCLK2 (human)): 100%; kinase still bound, per cent of control (CDK7 (human)): 1.4%; kinase still bound, per cent of control (MAP4K3 (human)): 100%; kinase still bound, per cent of control (SGK110 (human)): 100%; kinase still bound, per cent of control (ZAP70 (human)): 100% |
| COc1ccc(N(C(=O)Oc2cc(C(=O)Nc3cccc(C(F)(F)F)c3)ccc2C)c2ccnc(Nc3ccc(N4CCN(C)CC4)cc3)n2)c(OC)c1 | 100 | 2.7 | 100 | 100 | 100 | 100 | 100 | 100 | 20 | 100 | 4.2 | 100 | 10 | 4.4 | 100 | 100 | 100 | 100 | 100 | 0.75 | kinase still bound, per cent of control (PTK2B (human)): 0.9%; kinase still bound, per cent of control (PAK1 (human)): 100%; kinase still bound, per cent of control (RIOK1 (human)): 100%; kinase still bound, per cent of control (SRPK2 (human)): 100%; kinase still bound, per cent of control (CSNK1G1 (human)): 100%; kinase still bound, per cent of control (CAMK2D (human)): 100%; kinase still bound, per cent of control (GSK3B (human)): 100%; kinase still bound, per cent of control (HCK (human)): 0.2%; kinase still bound, per cent of control (ADCK4 (human)): 100%; kinase still bound, per cent of control (DCLK2 (human)): 100%; kinase still bound, per cent of control (CDK7 (human)): 100%; kinase still bound, per cent of control (MAP4K3 (human)): 100%; kinase still bound, per cent of control (ZAP70 (human)): 100% |
| COc1cc(N2CCC(C(N)=O)CC2)ccc1Nc1nc(N)c(Cl)c(Nc2ccccc2S(=O)(=O)C(C)C)n1 | 14 | 0.6 | 12 | 100 | 18 | 100 | 100 | 100 | 100 | 100 | 100 | 21 | 4.5 | 0.6 | 1.2 | 100 | 100 | 22 | 100 | 15 | kinase still bound, per cent of control [1]: 100%; kinase still bound, per cent of control (PTK2B (human)): 0.15%; kinase still bound, per cent of control (PAK1 (human)): 100%; kinase still bound, per cent of control (RIOK1 (human)): 100%; kinase still bound, per cent of control (SRPK2 (human)): 100%; kinase still bound, per cent of control (CSNK1G1 (human)): 100%; kinase still bound, per cent of control (CAMK2D (human)): 100%; kinase still bound, per cent of control (GSK3B (human)): 100%; kinase still bound, per cent of control (HCK (human)): 24%; kinase still bound, per cent of control (ADCK4 (human)): 0%; kinase still bound, per cent of control (DCLK2 (human)): 100%; kinase still bound, per cent of control (CDK7 (human)): 100%; kinase still bound, per cent of control (MAP4K3 (human)): 100%; kinase still bound, per cent of control (SGK110 (human)): 100%; kinase still bound, per cent of control (ZAP70 (human)): 100% |
